Measurements from PMC9611726, “Synthesis, Characterization and Biological Investigation of New N-Modified Spinorphin Analogs” (Pharmaceuticals, 2022).
Marks after values point to notes of the source that are not given here. Where a SMILES comes first, the peptide text is derived from it. [ ]: non-standard residue; d: D form. The star is where a group is joined. X1 = CCN(CC)c1ccc2c(c1)Oc1cc(N(CC)CC)ccc1C2c1ccccc1C(=O)*; Ac6c = NC1(C(=O)O)CCCCC1; Ac5c = NC1(C(=O)O)CCCC1

Legend:
[1] = tested on: 6-Hz-induced psychomotor seizures; test: Six Hz psychomotor seizure test; assay type: in vivo, mice; conditions: i.c.v.; for % Protection / No. of Animals Protected/No. of Animals Tested: 6 Hz test, male ICR mice, test 10 min after administration; for anticonvulsant effect against 6-Hz-induced psychomotor seizures (in words): highest dose of 20 μg
Description: The screeing test for anticonvulsant activity of drugs was perfomed on male ICR mice (25–30 g), purchased by the vivarium of the Institute of Neurobiology, BAS. They were kept in standard laboratory conditions and cages in groups of 5–6 per cage with ad libitum access to commercial pellets for rodents and water. After a week of adaptation, all mice were allocated in groups of 6 according to their treatment and test procedure. Each mouse was used only for one experiment. All procedures were performed in agreement with the European Communities Council Directive 2010/63/EU. The experimental design was approved by the Bulgarian Food Safety Agency (#300/№ 5888–0183).
[…] The test for anticonvulsant activity was carried out 10 min after drug administration.
The test for assessment drug effect against psychomotor seizures was performed via a constant current device and corneal electrodes as previously. The criterion for assessing the anticonvulsant activity was restoration of normal posture 10 s after stimulation. Controls (mice treated with vehicle) were unable to resume normal behavior and stimulation trigger different stereotypic responses and automatism such as sniffing, vibrissae, locomotion, Straub tail, or clonic seizures.
For the 6-Hz test and MES a Fisher’s exact test (two-tailed) was applied. A one-way ANOVA of variance was used for the ivPTZ test and a Dunnet post hoc test in case of significance. Statistical significance was accepted at p ≤ 0.05 vs. control (Fisher’s exact test). The calculations were carried out with SigmaPlot program (11.0 version) and Graph Pad Prizm (Version 7.04) (GraphPad Software, San Diego, CA, USA).

Candida albicans = test: Antifungal activity test, paper disc diffusion; assay type: cell-based; conditions: C. albicans, Sabouraud Agar, 20 μL of 50 mg/mL, 24 h
Protocol: Tests were carried out on the Candida albicans fungus. The concentration of the extract tested was 50 mg/mL. The culture of each test fungus was taken to be tilted using an asepticose needle and rejuvenated in a liquid medium. In each medium, there is a spore density of […]. The prepared medium Sabouraud Agar (SA) in a petri dish with each culture was scratched on the top, then placed on the paper disc (paper disc), and then a peptide sample of 20 μL was placed on the paper disc. It was further incubated for 24 h and the resistance zone formed measured.

[2] = Acid-base constants (pKa) and isoelectric point (pI) by fluorimetry, confirmed by UV-Vis; assay type: physicochemical; conditions: for pKa2 / pKa1: fluorimetric, inflection of I/pH curve, confirmed by UV-Vis, average values from repeatable results; for pKa2: pH 1 to 12, rhodamine part (λex 560 nm); for pKa1: pH 1 to 12, tryptophan emission (λex 275 nm); for pI: isoelectric point calculated from the protolytic constants
Protocol: When studying the fluorescence properties, the emission spectra were recorded upon excitation at two wavelengths: λ^ex = 275 nm where tryptophan/tyrosine fluoresces, and at λ^ex = 560 nm where excitation of the rhodamine moiety is possible (Figure 5 and Figure 6). […] With both amino acids present in the indicated complex mixture, the fluorescence in the 300–400 nm range is more likely to originate from the indole group of the tryptophan residue, which is known to emit at ~350 nm at an excitation wavelength of 280 nm. Moreover, spectra were recorded at different pHs of the medium to determine the study compounds’ acid constants and isoelectric points. All compounds show similar behavior of fluorescence properties with minimal difference in wavelength where the compound absorbs in the visible region (1–2 nm). A strong decrease in the intensity of the emission maximum at λ^em = 585 nm is observed with an increase in the pH of the medium, which is due to the structural changes associated with the closure of the spirolactam ring at rhodamine. pH also affects the fluorescence emission intensity of the tryptophan/tyrosine spectral line. […] The obtained emission spectra at different pHs helped us to determine the acidity constants of the obtained compounds. pK values were obtained by selecting the inflection points of the I/pH curve at two wavelengths: 275 nm, where tryptophan emits, and 575 nm for the rhodamine part, respectively (Figure 5 and Figure 6, inserted graphs). At these points the concentrations of conjugated acid and base are equal, i.e., [HRh-S] = [Rh-S-], and according to the known relationship […] at this point pKa = рН. Equations (1) and (2) given in the experimental part were also used to calculate the acid constants to confirm the values. […] The proven higher values of the constants given in [24] are due to the influence of the –OH group of tyrosine, located near the spirolactam ring of rhodamine and leading to its more effortless opening. […] Based on the obtained values of the protolytic constants, the isoelectric points were calculated where the compounds would show zero charge and reduced solubility (Table 1). […] Stokes shift, showing the differences between the structure of the fluorophore in the ground S0 state and in the first excited state S1, was also determined as an essential feature for the rhodamine peptide derivatives (Figure 5, Table 2). The Stokes shift for all compounds at the rhodamine moiety is ~859 cm^−1, which is consistent with the rhodamine derivatives known in the literature.
Acid base constants and isoelectric points were determined fluorimetrically and confirmed by UV–Vis analyses. Absorption and emission spectra were recorded on a series of solutions with the same concentration of the peptide derivatives at different pHs (from 1 to 12). The assay data (intensity/absorbance versus pH) were processed with Origin8Pro mathematical software. The pK value were determined using the following equations:log [(Amax − A)/(A − Amin)] = pH − pKa(1) log [(IF max − IF)/(IF − IF min)] = pH – pKa(2) where the minimum (Amin) and the maximum (Amax) absorbances are at 275 nm and 557 nm, respectively, A is the absorbance at the given pH value; Fmax and Fmin are the maximum and minimum fluorescence emission intensity at 356 and 585 nm, respectively, F is the fluorescence intensity at the given pH value.

[3] = Antioxidant activity, DPPH radical scavenging; conditions: 77 μL sample + 3 mL DPPH, 30 min in the dark, 517 nm, standard BHT
Protocol: The determination of the antioxidant activity of the new peptide derivatives was carried out by inserting 77 μL of hL extract into a test tube, then adding 3 mL of DPPH solution, homogenizing, and incubating for 30 min in a dark room. The measurement of antioxidant activity was performed by a spectrophotometer with a wavelength of 517 nm. The treatment was carried out three times. The determination of activity for the standard solution was conducted by first diluting 0.025 BHT (butylated hydroxytoluene) with 1 mL of methanol. Then 3 mL of DPPH was added to 77 μL of BHT solution in a test tube, homogenized, and incubated for 30 min in a dark room. The treatment was repeated three times. For the blank, only 77 μL of methanol plus 3 mL of DPPH were used, then homogenized and incubated for 30 min in a dark room. According to Millauskas et al. (2004), the free radical scavenging activity of the sample was calculated by the formula:(3) DPPH radical concentration (%)=Acontrol− Asample/Acontrol × 100 where Acontrol is the absorbance value of the control reaction and Asample is the absorbance value in the presence of the tested extracts sample.

[4] = mice, p ≤ 0.05 compared to control

| SMILES | % Protection ([1]; dose 5 µg/10 µL) | No. of Animals Protected/No. of Animals Tested ([1]; dose 5 µg/10 µL) | % Protection ([1]; dose 10 µg/10 µL) | No. of Animals Protected/No. of Animals Tested ([1]; dose 10 µg/10 µL) | % Protection ([1]; dose 20 µg/10 µL) | No. of Animals Protected/No. of Animals Tested ([1]; dose 20 µg/10 µL) | anticonvulsant effect against 6-Hz-induced psychomotor seizures (in words) [1, 4] | antifungal activity, diameter of the inhibitory zone (in words) (Candida albicans) | pKa2 [2] | pKa1 [2] | pI [2] | antioxidant activity compared to the positive control (in words) [3] | protection against 6-Hz-induced psychomotor seizures (in words) ([1]; mice, at the three doses used (5, 10, and 20 μg), p ≤ 0.05 compared to control) |
| --- | --- | --- | --- | --- | --- | --- | --- | --- | --- | --- | --- | --- | --- |
| CCN(CC)c1ccc2c(c1)Oc1cc(N(CC)CC)ccc1C2c1ccccc1C(=O)N[C@@H](CC(C)C)C(=O)N[C@H](C(=O)N[C@H](C(=O)N[C@@H](Cc1ccc(O)cc1)C(=O)NC1(C(=O)N[C@@H](Cc2c[nH]c3ccccc23)C(=O)N[C@H](C(N)=O)[C@@H](C)O)CCCC1)C(C)C)C(C)C [Rh-S5, rhodamineB-Leu-Val-Val-Tyr-Ac5c-Trp-Thr-NH2] (X1-LVVY[Ac5c]WT-NH2) | 17% | 1/6 | 33% | 2/6 | 83 * % | 5/6 | significant anticonvulsant effect | slightly higher than the negative control | 5.36 | 5.11 | 5.23 | weak | – |
| CCN(CC)c1ccc2c(c1)Oc1cc(N(CC)CC)ccc1C2c1ccccc1C(=O)N[C@@H](CC(C)C)C(=O)N[C@H](C(=O)N[C@H](C(=O)N[C@@H](Cc1ccc(O)cc1)C(=O)NC1(C(=O)N[C@@H](Cc2c[nH]c3ccccc23)C(=O)N[C@H](C(N)=O)[C@@H](C)O)CCCCC1)C(C)C)C(C)C [Rh-S6, rhodamineB-Leu-Val-Val-Tyr-Ac6c-Trp-Thr-NH2] (X1-LVVY[Ac6c]WT-NH2) | 33% | 2/6 | 50% | 3/6 | 67 * % | 4/6 | significant anticonvulsant effect | slightly higher than the negative control | 4.94 | 6.35 | 5.65 | similar | – |
| CCN(CC)c1ccc2c(c1)Oc1cc(N(CC)CC)ccc1C2c1ccccc1C(=O)N[C@@H](CC(C)C)C(=O)N[C@H](C(=O)N[C@H](C(=O)N[C@@H](Cc1ccc(O)cc1)C(=O)N1CCC[C@H]1C(=O)N[C@@H](Cc1c[nH]c2ccccc12)C(=O)N[C@H](C(N)=O)[C@@H](C)O)C(C)C)C(C)C [Rh-S, rhodamineB-Leu-Val-Val-Tyr-Pro-Trp-Thr-NH2] (X1-LVVYPWT-NH2) | 67 * % | 4/6 | 100 * % | 6/6 | 67 * % | 4/6 | – | slightly higher than the negative control | 4.56 | 7.09 | 5.82 | similar | significant protection |
